Several values for one entry are separate records, joined by “and”; a condition that tells them apart may be missing. Equal values may be shown once. Non-standard residues stand in square brackets, D forms with d. Residues, ends and D or L forms follow the SMILES beside them. No end group written: not given here. Cit = NC(=O)NCCC[C@H](N)C(=O)O

For the first assay, the target named is DR0401 (HLA-DRB1*04:01) (Homo sapiens, UniProt P01903+P01911, A100K/A169T/F76Y/I96L/K127E/L162R/M171V/N62H/P40V/Q125Y/R42H/S133A/S149N/S66Y/V115G/V209L/W38E). The experiment in a line: Peptide binding to DR0401.
Conditions: not given
Usually EC50 stands for the midpoint of the concentration-response curve. For the compound `CC[C@H](C)[C@H](NC(=O)[C@@H]1CCCN1C(=O)[C@H](Cc1ccc(O)cc1)NC(=O)[C@H](CCCNC(N)=O)NC(=O)[C@H](CC(C)C)NC(=O)[C@H](CO)NC(=O)CNC(=O)[C@H](CC(=O)O)NC(=O)[C@H](C)NC(=O)[C@H](CC(C)C)NC(=O)[C@H](Cc1c[nH]c2ccccc12)NC(=O)CNC(=O)[C@H](C)NC(=O)[C@H](Cc1ccc(O)cc1)NC(=O)[C@H](CS)NC(=O)[C@@H](N)CCCCN)C(=O)N[C@H](C(=O)O)C(C)C` [agg 621] (H-KCYAGWLADGSL[Cit]YPIV-OH), the EC50 was 6.9 µM and 4.66 µM.
Regarding `CC[C@H](C)[C@H](NC(=O)[C@@H]1CCCN1C(=O)[C@H](Cc1ccc(O)cc1)NC(=O)[C@H](CCCNC(N)=O)NC(=O)[C@@H](NC(=O)[C@H](CO)NC(=O)[C@H](CCCNC(N)=O)NC(=O)[C@H](CC(=O)O)NC(=O)[C@H](C)NC(=O)[C@H](CC(C)C)NC(=O)[C@H](Cc1c[nH]c2ccccc12)NC(=O)CNC(=O)[C@H](C)NC(=O)[C@@H](N)CO)C(C)C)C(=O)N[C@@H](CO)C(=O)N[C@@H](CCCCN)C(=O)O` [agg 298-313] (H-SAGWLAD[Cit]SV[Cit]YPISK-OH), the EC50 is 1.9 µM and 2.94 µM.
Take `CC(C)C[C@H](NC(=O)[C@H](CCCNC(N)=O)NC(=O)[C@H](CC(=O)O)NC(=O)[C@@H](NC(=O)[C@H](Cc1ccccc1)NC(=O)[C@H](CS)NC(=O)[C@H](Cc1ccc(O)cc1)NC(=O)[C@@H](NC(=O)[C@@H](N)CC(=O)O)C(C)C)C(C)C)C(=O)N[C@@H](CCC(=O)O)C(=O)NCC(=O)N[C@@H](CCC(=O)O)C(=O)N[C@H](C(=O)N[C@@H](Cc1ccccc1)C(=O)N[C@@H](Cc1ccccc1)C(=O)N[C@@H](C)C(=O)O)C(C)C` [agg 568] (H-DVYCFVD[Cit]LEGEVFFA-OH): the EC50 is 23.4 µM and 3.06 µM.
On to `CC(C)C[C@H](NC(=O)[C@H](CO)NC(=O)[C@H](Cc1ccc(O)cc1)NC(=O)[C@H](CCCNC(N)=O)NC(=O)[C@@H](NC(=O)[C@@H]1CCCN1C(=O)CNC(=O)[C@@H]1CCCN1C(=O)[C@H](CCCNC(N)=O)NC(=O)[C@H](Cc1ccc(O)cc1)NC(=O)[C@H](Cc1c[nH]cn1)NC(=O)[C@H](Cc1ccccc1)NC(=O)[C@@H](NC(=O)[C@@H](NC(=O)CN)C(C)C)C(C)C)[C@@H](C)O)C(=O)N[C@H](C(=O)N[C@@H](Cc1ccccc1)C(=O)O)[C@@H](C)O` [agg 477] (H-GVVFHY[Cit]PGPT[Cit]YSLTF-OH), for which the EC50 was 14.7 µM and > 100 µM.
As for `CC(C)C[C@H](NC(=O)[C@H](CS)NC(=O)[C@H](Cc1ccccc1)NC(=O)[C@@H]1CCCN1C(=O)[C@H](CO)NC(=O)[C@@H](N)CC(N)=O)C(=O)N[C@@H](CCC(=O)O)C(=O)N[C@@H](CCCNC(N)=O)C(=O)N[C@H](C(=O)N1CCC[C@H]1C(=O)N[C@@H](CC(C)C)C(=O)NCC(=O)N[C@@H](CO)C(=O)N1CCC[C@H]1C(=O)N[C@@H](CC(=O)O)C(=O)N1CCC[C@H]1C(=O)N[C@@H](C)C(=O)O)[C@@H](C)O` [agg 684] (H-NSPFCLE[Cit]TPLGSPDPA-OH), the EC50 is 0.12 µM and 0.13 µM.
As to `CC[C@H](C)[C@H](NC(=O)[C@@H](NC(=O)[C@H](CCCNC(N)=O)NC(=O)[C@H](CC(C)C)NC(=O)[C@@H](NC(=O)[C@@H](NC(=O)[C@H](Cc1ccccc1)NC(=O)[C@@H](NC(=O)[C@H](Cc1c[nH]c2ccccc12)NC(=O)[C@H](CC(C)C)NC(=O)[C@H](CC(C)C)NC(=O)[C@@H](N)[C@@H](C)O)C(C)C)C(C)C)[C@@H](C)O)C(C)C)C(=O)N[C@H](C(=O)N[C@@H](C)C(=O)N[C@@H](C)C(=O)N[C@H](C(=O)N[C@H](C(=O)N[C@H](C(=O)O)C(C)C)[C@@H](C)O)C(C)C)[C@@H](C)O` [agg 3-20] (H-TLLWVFVTL[Cit]VITAAVTV-OH), the EC50 was 35.3 µM and 36.1 µM.
As for `CC(C)C[C@H](NC(=O)[C@H](CCCNC(N)=O)NC(=O)[C@@H](NC(=O)[C@H](C)NC(=O)[C@H](Cc1ccccc1)NC(=O)[C@H](Cc1ccccc1)NC(=O)[C@@H](NC(=O)[C@@H](N)CCC(=O)O)C(C)C)[C@@H](C)O)C(=O)N[C@@H](CCC(=O)O)C(=O)N[C@@H](CCC(N)=O)C(=O)N[C@@H](Cc1ccccc1)C(=O)N[C@H](C(=O)N[C@@H](Cc1ccccc1)C(=O)N[C@@H](CCC(N)=O)C(=O)N[C@@H](CCC(=O)O)C(=O)O)[C@@H](C)O` [agg 579] (H-EVFFAT[Cit]LEQFTFQE-OH), the EC50 was 78.4 µM and 15.3 µM.

Staying with this assay, now noted: data not shown.
Regarding “VVLLVATEG[Cit]VRVNSAYQDK [cit-Agg84, reference compound]”, the “Binding to DR0401 (in words)” value is listed as “very low affinity”.
